Source: ChEMBL document CHEMBL1201862, “PubChem BioAssay data set” (2004)
Blank lines part the entries; values can stand above or below the molecule they belong to. Calls of active or inactive are those of the source.

Tests used:
[1] = SAR analysis of small molecule activators of Apaf-1 using a LZ-Caspase-9/Caspase-3 Fluorescent Selectivity assay - Set 2.; format: functional; settings: read-out: EC50_Mean
[2] = target: T1, Apoptotic protease-activating factor 1 (Homo sapiens, UniProt O14727); experiment: SAR analysis of small molecule Activators of Apaf-1 in a Fluorescent assay.; format: functional; settings: read-out: EC50_Mean
T1 sequence (O14727 whole entry): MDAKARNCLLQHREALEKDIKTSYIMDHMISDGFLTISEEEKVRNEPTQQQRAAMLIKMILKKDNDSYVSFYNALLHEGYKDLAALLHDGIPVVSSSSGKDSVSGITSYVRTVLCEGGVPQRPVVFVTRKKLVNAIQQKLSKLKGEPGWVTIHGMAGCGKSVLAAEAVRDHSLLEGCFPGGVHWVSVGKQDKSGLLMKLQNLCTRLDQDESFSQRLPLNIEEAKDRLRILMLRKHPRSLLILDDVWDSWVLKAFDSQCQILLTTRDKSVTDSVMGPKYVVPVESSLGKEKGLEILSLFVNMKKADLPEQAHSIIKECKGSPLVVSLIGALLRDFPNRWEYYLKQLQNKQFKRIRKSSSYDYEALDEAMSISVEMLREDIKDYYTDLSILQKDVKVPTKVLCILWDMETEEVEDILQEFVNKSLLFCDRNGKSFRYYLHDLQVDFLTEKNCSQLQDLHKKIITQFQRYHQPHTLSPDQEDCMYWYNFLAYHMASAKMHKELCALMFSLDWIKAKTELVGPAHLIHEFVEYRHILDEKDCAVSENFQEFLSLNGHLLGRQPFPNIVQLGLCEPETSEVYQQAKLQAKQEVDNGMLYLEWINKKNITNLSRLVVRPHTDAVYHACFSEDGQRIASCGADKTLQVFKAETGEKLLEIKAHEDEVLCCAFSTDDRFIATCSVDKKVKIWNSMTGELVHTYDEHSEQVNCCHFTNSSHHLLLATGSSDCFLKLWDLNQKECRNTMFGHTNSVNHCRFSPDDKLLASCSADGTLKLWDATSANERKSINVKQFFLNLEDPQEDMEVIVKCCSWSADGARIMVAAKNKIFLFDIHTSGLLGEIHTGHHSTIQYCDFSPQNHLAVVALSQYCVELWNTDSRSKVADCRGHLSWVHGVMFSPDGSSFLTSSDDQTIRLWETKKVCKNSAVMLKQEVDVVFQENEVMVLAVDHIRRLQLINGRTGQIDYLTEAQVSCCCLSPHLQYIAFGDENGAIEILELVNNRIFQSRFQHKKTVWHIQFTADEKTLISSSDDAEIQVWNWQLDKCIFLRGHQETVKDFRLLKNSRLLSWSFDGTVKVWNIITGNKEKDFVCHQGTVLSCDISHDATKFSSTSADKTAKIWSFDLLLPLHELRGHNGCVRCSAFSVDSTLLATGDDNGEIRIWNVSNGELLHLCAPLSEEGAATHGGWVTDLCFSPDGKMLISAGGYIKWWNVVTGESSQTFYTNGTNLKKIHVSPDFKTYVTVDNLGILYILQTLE

[3] = target: T1, Apoptotic protease-activating factor 1; experiment: SAR analysis of small molecule Activators of Apaf-1 in a Fluorescent assay - set 2.; format: functional; settings: read-out: EC50_Mean
[4] = target: T2, Neuropeptides B/W receptor type 1 (Homo sapiens, UniProt P48145); experiment: GPR7 antagonist potency, late-stage follow-up, cell-based, fluorescence, dose response, set 5 (AID 588566); format: functional
T2 sequence (P48145 whole entry): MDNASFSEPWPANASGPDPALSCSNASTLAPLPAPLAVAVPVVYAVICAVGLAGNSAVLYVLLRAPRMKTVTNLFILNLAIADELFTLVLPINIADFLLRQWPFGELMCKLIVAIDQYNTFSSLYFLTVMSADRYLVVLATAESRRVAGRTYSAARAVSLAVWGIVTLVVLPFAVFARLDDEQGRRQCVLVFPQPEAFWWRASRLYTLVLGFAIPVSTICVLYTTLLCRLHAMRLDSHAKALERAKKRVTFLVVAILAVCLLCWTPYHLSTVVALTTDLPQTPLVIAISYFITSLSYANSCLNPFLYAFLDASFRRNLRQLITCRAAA

[5] = target: T3, Melanin-concentrating hormone receptor 1 (Homo sapiens, UniProt Q99705); experiment: Late-stage fluorescence-based counterscreen for antagonists of the G-protein coupled receptor 7 (GPR7): cell-based dose response assay to identify antagonists of the melanin-concentrating hormone receptor 1 (MCHR1) Set 5.; format: functional
[6] = target: T3, Melanin-concentrating hormone receptor 1; experiment: Late-stage fluorescence-based counterscreen for antagonists of the G-protein coupled receptor 7 (GPR7): cell-based dose response assay to identify antagonists of the melanin-concentrating hormone receptor 1 (MCHR1) Set 6.; format: functional
[7] = target: T2, Neuropeptides B/W receptor type 1; experiment: GPR7 antagonist potency, late-stage follow-up, cell-based, fluorescence, dose response, set 6 (AID 588583); format: functional
Bcl-2-like protein 10 = target: T4, Bcl-2-like protein 10 (Homo sapiens, UniProt Q9HD36); experiment: displacers of TR3 peptide from Bcl-B, primary screen, selectivity assay for Bfl-1 inhibitor project, biochemical, fluorescence polarization, FITC-TR3 peptide (AID 748);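 note: fluorescence polarization from a fluorescein-labelled TR3 peptide binding purified Bcl-B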
T4 sequence (Q9HD36 whole entry): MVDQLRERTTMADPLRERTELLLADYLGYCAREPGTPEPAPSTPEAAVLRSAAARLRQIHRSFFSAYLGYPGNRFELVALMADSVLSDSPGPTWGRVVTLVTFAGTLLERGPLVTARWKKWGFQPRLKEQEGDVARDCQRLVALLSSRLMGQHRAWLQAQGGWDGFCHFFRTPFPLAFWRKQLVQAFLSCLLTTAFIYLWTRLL

[8] = target: T5, DNA dC->dU-editing enzyme APOBEC-3A (Homo sapiens, UniProt P31941); experiment: SAR analysis of small molecule inhibitors of APOBEC3A DNA Deaminase via a fluorescence-based single-stranded DNA deaminase assay - Set 2.; format: functional; settings: read-out: IC50_Mean
[9] = target: T6, DNA dC->dU-editing enzyme APOBEC-3G (Homo sapiens, UniProt Q9HC16); experiment: SAR analysis of small molecule inhibitors of APOBEC3G DNA Deaminase via a fluorescence-based single-stranded DNA deaminase assay - Set 2.; format: functional; settings: read-out: IC50_Mean
[10] = target: T6, DNA dC->dU-editing enzyme APOBEC-3G; experiment: APOBEC3G deaminase inhibitors, SAR follow-up, biochemical, fluorescence, single-stranded DNA substrate (AID 602136); format: functional; settings: read-out: IC50_Mean
[11] = target: T5, DNA dC->dU-editing enzyme APOBEC-3A; experiment: SAR analysis of small molecule inhibitors of APOBEC3A DNA Deaminase via a fluorescence-based single-stranded DNA deaminase assay.; format: functional; settings: read-out: IC50_Mean
Protein Tat = target: T7, Protein Tat (Human immunodeficiency virus type 1 group M subtype B (isolate HXB2)(HIV-1), UniProt P04608); format: functional;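 note: tat binding to TAR RNA read out by fluorescence polarization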
T7 sequence (P04608 whole entry): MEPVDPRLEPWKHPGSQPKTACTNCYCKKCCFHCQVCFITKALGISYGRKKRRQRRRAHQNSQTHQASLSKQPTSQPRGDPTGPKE

[12] = target: Protein kinase C theta type (Homo sapiens, UniProt Q04759); experiment: Navigating the Kinome. Panel member name: PRKCQ; format: functional
[13] = target: ALK tyrosine kinase receptor (Homo sapiens, UniProt Q9UM73); format: functional;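 note: ALK tested as one member of a kinase panel screen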
[14] = target: Death-associated protein kinase 3 (Homo sapiens, UniProt O43293); format: functional;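 note: measured as one member of a kinome-wide profiling panel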
Aurora kinase A = target: T8, Aurora kinase A (Homo sapiens, UniProt O14965); format: functional;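 note: value from the Navigating the Kinome kinase panel profiling, panel entry STK6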
T8 sequence (O14965 whole entry): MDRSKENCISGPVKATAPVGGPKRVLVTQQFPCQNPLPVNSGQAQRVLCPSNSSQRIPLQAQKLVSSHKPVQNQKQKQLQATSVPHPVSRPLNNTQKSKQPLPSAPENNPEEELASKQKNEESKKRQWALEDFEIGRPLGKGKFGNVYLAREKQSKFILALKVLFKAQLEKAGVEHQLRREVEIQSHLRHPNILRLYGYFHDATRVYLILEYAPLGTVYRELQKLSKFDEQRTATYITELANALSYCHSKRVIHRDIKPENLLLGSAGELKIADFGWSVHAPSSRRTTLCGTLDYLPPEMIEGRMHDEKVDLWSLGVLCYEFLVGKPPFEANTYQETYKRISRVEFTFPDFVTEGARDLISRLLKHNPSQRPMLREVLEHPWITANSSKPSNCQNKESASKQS

LIM domain kinase 1 = LIM domain kinase 1 (Homo sapiens, UniProt P53667); experiment: Navigating the Kinome. Panel member name: LIMK1; format: functional
[15] = target: Platelet-derived growth factor receptor beta (Homo sapiens, UniProt P09619); format: functional;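 note: value comes from a kinome panel, with PDGFRB tested as one panel member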
[16] = target: T9, Serine/threonine-protein kinase Chk1 (Homo sapiens, UniProt O14757); format: functional;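 note: measured as one member of a kinome-wide kinase profiling panel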
T9 sequence (O14757 whole entry): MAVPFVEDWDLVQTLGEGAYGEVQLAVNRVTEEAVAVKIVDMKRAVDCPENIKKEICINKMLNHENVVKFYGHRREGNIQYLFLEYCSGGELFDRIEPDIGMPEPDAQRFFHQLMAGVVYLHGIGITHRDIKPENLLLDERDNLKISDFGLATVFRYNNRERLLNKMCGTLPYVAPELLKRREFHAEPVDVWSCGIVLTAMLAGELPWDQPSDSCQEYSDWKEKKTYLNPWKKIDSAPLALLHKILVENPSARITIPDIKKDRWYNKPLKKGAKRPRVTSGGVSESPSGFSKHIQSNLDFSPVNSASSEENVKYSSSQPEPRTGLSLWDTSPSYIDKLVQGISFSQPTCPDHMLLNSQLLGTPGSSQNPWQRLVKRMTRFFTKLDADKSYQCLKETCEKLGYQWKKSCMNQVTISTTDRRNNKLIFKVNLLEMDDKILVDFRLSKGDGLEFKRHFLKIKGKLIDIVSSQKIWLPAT

[17] = target: Tyrosine-protein kinase ABL1 (Homo sapiens, UniProt P00519); format: functional
[18] = target: Vascular endothelial growth factor receptor 2 (Homo sapiens, UniProt P35968); format: functional
[19] = target: Dual specificity tyrosine-phosphorylation-regulated kinase 1B (Homo sapiens, UniProt Q9Y463); experiment: Navigating the Kinome. Panel member name: DYRK1B; format: functional
[20] = target: Cyclin-dependent kinase 19 (Homo sapiens, UniProt Q9BWU1); experiment: Navigating the Kinome. Panel member name: CDC2L6; format: functional
[21] = target: Rho-associated protein kinase 1 (Homo sapiens, UniProt Q13464); format: functional;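 note: measured within a broad kinome-wide panel profiling many kinases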
[22] = target: Cyclin-dependent kinase 9 (Homo sapiens, UniProt P50750); format: functional;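 note: value from the CDK9 entry of a kinome-spanning kinase panel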
[23] = target: cAMP-dependent protein kinase catalytic subunit alpha (Homo sapiens, UniProt P17612); format: functional
[24] = target: Macrophage colony-stimulating factor 1 receptor (Homo sapiens, UniProt P07333); format: functional;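 note: value comes from the Navigating the Kinome screening panel, CSF1R member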
[25] = target: Dual specificity tyrosine-phosphorylation-regulated kinase 1A (Homo sapiens, UniProt Q13627); format: functional;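 note: measured against DYRK1A as one member of a broad kinome profiling panel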
[26] = target: Leukocyte tyrosine kinase receptor (Homo sapiens, UniProt P29376); experiment: Navigating the Kinome. Panel member name: LTK; format: functional

T6 sequence (Q9HC16 whole entry): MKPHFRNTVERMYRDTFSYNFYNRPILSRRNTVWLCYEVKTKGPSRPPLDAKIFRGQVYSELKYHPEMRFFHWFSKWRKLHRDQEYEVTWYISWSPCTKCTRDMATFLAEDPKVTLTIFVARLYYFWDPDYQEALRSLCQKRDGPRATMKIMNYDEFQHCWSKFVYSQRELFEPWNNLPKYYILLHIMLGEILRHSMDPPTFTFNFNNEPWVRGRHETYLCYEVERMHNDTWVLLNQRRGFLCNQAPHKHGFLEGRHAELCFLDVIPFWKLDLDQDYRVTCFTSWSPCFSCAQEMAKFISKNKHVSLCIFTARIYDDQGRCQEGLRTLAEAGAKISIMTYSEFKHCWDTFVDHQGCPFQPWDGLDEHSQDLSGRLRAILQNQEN
T5 sequence (P31941 whole entry): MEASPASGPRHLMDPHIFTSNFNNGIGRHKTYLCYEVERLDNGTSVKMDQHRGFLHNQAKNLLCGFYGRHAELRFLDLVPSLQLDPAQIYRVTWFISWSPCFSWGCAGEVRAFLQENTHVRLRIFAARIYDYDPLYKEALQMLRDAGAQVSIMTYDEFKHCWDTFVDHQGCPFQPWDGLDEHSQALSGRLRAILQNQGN
T3 sequence (Q99705 whole entry): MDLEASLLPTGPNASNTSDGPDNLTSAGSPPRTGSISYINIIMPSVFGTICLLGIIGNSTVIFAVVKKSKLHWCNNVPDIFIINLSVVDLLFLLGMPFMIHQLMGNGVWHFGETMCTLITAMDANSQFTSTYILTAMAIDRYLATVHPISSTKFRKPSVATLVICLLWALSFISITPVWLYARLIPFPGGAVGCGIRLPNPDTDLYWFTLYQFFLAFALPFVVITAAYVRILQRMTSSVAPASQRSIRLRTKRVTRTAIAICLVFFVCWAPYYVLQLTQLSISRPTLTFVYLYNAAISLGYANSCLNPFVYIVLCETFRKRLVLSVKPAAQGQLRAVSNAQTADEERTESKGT
Sequence of Tyrosine-protein kinase ABL1 (P00519 whole entry): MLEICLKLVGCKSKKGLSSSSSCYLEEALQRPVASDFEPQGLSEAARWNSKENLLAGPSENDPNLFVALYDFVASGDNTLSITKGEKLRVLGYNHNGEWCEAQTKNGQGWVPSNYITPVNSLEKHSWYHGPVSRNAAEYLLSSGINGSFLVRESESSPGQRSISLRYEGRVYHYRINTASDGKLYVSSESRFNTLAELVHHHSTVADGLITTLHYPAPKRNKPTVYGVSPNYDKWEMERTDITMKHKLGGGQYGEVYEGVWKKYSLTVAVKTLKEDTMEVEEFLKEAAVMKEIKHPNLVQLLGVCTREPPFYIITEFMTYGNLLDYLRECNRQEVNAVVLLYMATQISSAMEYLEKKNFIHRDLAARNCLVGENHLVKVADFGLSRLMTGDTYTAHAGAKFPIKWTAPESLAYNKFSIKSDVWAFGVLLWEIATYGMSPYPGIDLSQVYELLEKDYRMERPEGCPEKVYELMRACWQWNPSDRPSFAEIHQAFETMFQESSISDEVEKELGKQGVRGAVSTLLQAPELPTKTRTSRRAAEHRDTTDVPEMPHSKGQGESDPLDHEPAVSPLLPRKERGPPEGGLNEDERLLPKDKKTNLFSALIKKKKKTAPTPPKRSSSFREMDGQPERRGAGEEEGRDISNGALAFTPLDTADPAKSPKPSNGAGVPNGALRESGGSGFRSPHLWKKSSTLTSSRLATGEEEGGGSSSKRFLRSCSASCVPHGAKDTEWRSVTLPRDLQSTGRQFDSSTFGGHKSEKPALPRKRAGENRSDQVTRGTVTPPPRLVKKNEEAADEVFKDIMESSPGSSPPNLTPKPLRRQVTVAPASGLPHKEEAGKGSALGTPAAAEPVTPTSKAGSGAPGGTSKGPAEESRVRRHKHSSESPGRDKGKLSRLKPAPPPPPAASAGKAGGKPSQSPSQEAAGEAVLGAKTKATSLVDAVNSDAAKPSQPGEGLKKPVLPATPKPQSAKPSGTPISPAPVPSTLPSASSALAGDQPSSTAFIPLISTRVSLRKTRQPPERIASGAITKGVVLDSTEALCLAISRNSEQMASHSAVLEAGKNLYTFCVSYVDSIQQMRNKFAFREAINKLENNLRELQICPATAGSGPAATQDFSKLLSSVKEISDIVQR
Sequence of LIM domain kinase 1 (P53667 whole entry, the tested form may be a part): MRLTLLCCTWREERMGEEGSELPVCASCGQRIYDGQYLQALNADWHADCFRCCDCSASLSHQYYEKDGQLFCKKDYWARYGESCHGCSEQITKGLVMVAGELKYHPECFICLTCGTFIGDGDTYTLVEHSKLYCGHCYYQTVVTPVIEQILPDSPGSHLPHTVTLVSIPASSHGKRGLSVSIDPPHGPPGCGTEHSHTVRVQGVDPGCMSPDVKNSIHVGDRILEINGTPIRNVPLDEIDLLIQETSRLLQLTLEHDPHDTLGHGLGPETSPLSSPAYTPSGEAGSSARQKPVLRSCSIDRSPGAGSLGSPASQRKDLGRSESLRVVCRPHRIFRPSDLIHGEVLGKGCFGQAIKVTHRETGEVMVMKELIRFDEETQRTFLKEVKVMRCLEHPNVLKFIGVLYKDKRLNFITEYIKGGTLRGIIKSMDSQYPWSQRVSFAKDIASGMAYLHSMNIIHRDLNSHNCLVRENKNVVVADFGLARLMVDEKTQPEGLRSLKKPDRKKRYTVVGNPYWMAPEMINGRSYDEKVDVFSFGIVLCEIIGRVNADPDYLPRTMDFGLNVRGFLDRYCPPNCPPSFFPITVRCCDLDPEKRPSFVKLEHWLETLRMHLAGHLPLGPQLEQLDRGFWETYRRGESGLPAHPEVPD
Sequence of Cyclin-dependent kinase 9 (P50750 whole entry): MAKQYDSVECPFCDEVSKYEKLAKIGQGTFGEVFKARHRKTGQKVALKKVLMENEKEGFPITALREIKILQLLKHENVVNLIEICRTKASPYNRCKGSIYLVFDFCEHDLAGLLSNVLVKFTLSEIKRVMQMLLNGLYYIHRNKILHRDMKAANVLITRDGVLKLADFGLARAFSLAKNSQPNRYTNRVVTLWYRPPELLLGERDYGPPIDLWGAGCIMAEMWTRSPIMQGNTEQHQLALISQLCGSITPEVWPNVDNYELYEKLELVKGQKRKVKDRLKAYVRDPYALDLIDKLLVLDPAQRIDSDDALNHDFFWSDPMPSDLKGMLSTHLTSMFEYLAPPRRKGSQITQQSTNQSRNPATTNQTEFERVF
Sequence of Vascular endothelial growth factor receptor 2 (P35968 whole entry): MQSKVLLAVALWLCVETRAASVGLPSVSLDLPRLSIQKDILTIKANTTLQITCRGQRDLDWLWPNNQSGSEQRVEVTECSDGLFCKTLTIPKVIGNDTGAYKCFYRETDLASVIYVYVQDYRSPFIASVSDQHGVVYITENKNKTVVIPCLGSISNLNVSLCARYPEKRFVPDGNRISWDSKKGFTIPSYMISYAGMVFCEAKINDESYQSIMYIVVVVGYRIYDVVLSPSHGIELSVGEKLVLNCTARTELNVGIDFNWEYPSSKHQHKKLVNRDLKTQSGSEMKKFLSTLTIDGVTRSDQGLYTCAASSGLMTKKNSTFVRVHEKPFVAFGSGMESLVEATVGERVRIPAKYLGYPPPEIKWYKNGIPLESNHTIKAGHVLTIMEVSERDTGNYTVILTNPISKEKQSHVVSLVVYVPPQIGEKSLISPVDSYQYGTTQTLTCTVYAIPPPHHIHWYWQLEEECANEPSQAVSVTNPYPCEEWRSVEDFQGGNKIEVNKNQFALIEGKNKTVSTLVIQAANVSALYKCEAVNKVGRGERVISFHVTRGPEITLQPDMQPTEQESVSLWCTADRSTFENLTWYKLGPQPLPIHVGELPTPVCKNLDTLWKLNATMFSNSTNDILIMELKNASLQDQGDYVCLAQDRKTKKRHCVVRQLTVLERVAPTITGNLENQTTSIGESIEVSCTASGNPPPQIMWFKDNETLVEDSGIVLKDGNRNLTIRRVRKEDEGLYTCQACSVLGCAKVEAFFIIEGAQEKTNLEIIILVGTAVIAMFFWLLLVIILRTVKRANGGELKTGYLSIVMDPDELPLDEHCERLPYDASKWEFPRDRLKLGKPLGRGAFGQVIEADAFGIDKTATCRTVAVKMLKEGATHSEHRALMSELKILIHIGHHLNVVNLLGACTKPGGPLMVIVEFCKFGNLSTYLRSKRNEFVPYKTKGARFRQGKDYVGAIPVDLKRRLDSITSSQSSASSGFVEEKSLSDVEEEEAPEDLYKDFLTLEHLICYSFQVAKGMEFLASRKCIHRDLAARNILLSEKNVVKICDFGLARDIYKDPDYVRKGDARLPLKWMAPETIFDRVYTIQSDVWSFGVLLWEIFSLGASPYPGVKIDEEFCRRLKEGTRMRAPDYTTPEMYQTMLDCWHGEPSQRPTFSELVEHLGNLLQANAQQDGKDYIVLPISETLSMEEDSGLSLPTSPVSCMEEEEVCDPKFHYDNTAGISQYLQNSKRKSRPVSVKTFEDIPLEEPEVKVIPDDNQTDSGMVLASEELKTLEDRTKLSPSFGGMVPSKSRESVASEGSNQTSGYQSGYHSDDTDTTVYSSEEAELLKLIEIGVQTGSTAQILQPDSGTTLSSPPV
Sequence of Cyclin-dependent kinase 19 (Q9BWU1 whole entry): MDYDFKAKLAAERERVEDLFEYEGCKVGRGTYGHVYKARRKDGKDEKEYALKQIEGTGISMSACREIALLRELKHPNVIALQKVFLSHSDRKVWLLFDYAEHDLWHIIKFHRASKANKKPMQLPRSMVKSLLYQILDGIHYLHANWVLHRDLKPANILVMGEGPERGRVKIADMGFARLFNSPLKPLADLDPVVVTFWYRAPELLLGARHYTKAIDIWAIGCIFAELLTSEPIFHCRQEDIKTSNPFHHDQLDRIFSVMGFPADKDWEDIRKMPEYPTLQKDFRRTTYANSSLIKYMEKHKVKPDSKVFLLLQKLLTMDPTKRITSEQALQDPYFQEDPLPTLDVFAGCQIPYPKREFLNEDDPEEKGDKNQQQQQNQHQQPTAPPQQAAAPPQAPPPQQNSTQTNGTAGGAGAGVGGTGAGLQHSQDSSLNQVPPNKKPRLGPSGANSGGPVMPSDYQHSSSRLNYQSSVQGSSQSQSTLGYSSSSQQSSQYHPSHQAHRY

SMILES: Cc1cc(C)n(C(C)C(C)C(=O)O)n1 (stereo not given)
EC50 [1]: > 100 µM (inactive)
EC50 [2]: > 100 µM (inactive)
EC50 [3]: > 100 µM (inactive)

SMILES: Cc1ccc(C)n1Cc1ccc(C(=O)O)cc1
IC50 (Bcl-2-like protein 10): 6.93 µM (active)
IC50 [8]: 4.11 µM (active)
IC50 [9]: 1.98 µM (active)
IC50 [10]: 39.3 µM (inactive)
IC50 [11]: 52.6 µM (inactive)
IC50 (Protein Tat): 3.45 µM (inconclusive)

SMILES: Nc1ccc(-c2cccn3c(=O)[nH]nc23)cc1
Ki [12]: > 100 µM (inactive)
Ki [13]: 6.31 µM (active)
Ki [14]: 79.4 µM (active)
Ki (Aurora kinase A): > 63.1 µM (inactive)
Ki (LIM domain kinase 1): 31.6 µM (active)
Ki [15]: > 79.4 µM (inactive)
Ki [16]: 12.6 µM (active)
Ki [17]: 50.1 µM (active)
Ki [18]: 39.8 µM (active)
Ki [19]: 63.1 µM (active)
Ki [20]: > 100 µM (inactive)
Ki [21]: 12.6 µM (active)
Ki [22]: > 63.1 µM (inactive)
Ki [23]: 50.1 µM (active)
Ki [24]: > 100 µM (inactive)
Ki [25]: > 79.4 µM (inactive)
Ki [26]: 3.16 µM (active)

Results, then the molecule that gave them:

IC50 [4]: 1.76 µM (active)
IC50 [5]: 0.91 µM (active)
SMILES: COc1ccc(Oc2c(C=O)cnn(Cc3cccc4ccccc34)c2=O)cc1

IC50 [6]: > 20 µM (inactive)
IC50 [7]: > 20 µM (inactive)
SMILES: N#CC(c1ccccc1)c1ccnn(Cc2cccc3ccccc23)c1=O (stereo not given)
